From patent US20040029965A1, “Formulations for reducing or eliminating toxicity of enviromental hormones containing ursodeoxycholic acid” (priority 2000, published 2004)
Marks after values point to notes of the source that are not given here.

Tested on: C57B1/6J mice
Assay: Hematological changes in mice by a single subcutaneous injection of TCDD
Type: in vivo
Design: NEU / LYM / PLT: unit not given here
Method: Male C57B1/6J mice of 5 weeks old having the average weight of 18-22 g which had been bred in CRJ (Charles River in Japan) were purchased and used in this example as experimental animals. Those mice were acclimated under the constant breeding condition, i.e. the temperature of 24±1° C., the humidity of 60±10% and the light and darkness cycle of 12 hours, for one week and thereafter, utilized in the experiment.
2,3,7,8-tetrachlorodibenzo-p-dioxin (TCDD) dissolved in toluene (purity of 95% or more as a result of gas chromatography analysis), manufactured by Chem. Services Inc. in USA, was volatilized with nitrogen to obtain powder. The obtained powder was dissolved in a mixed solvent containing acetone and corn oil with a volume ratio of 1:6. The resulting solution each containing 110, 27.5 and 6.9 μg/kg of TCDD was subcutaneously injected to mice at a volume of 5 ml per body weight. […] The mice were supplied with the feed from 10 days before (pre-administration) to 60 days after administration of TCDD (post-administration).
Upon completion of the experiment for 60 days, the experimental animals were fasted for 24 hours and anesthetized with ether. Then, they were abdominally incised and blood was gathered from abdominal vena cava. They were sacrificed by the release of blood. Liver, kidneys, testes and epididymides were extracted and all the extracted organs were weighed. Only the testes were separately kept and observed under optical and electron microscopes. For biochemical finding test, serum was separated from blood with a centrifuge and the separated serum was analyzed with an automated blood biochemical analyzer, Dimension (Dupont, USA). Blood was put to another blood gathering bottle and then, analyzed with an automated blood cell analyzer, Celldyn (Abbott, USA).
The results are expressed as Mean±Standard Deviation values. For statistical analysis of the body weight, feed and water uptake, biochemical findings, hematological findings and the weight of organ in an acute toxicity test, verification was performed by one way analysis of variance (ANOVA) in case of equal distribution. In case significance was recognized in ANOVA, the Student's t-test was performed in the levels of p<0.05 and p<0.01.
For hematological findings, white blood cell (WBC), neutrophil (NEU), lymphocyte (LYM), monocyte (MONO), eosinophil (EOS), basophil (BASO) and red blood cell (RBC) counts, and hemoglobin concentration (HGB), hematocrit (HCT), mean cell volume (MCV), mean corpuscular hemoglobin (MCH), mean corpuscular hemoglobin concentration (MCHC), red blood cell distribution width (RDW) and platelet count (PLT) were measured and the results are as follows.

[1] = TCDD 6.9 μg/kg + UDCA 0.125 wt %
[2] = TCDD 6.9 μg/kg + UDCA 0.25 wt %
[3] = TCDD 27.5 μg/kg + UDCA 0.125 wt %
[4] = TCDD 27.5 μg/kg + UDCA 0.25 wt %
[5] = TCDD 27.5 μg/kg + UDCA 0.5 wt %

For `C[C@H](CCC(=O)O)[C@H]1CC[C@H]2[C@@H]3[C@@H](O)C[C@@H]4C[C@H](O)CC[C@]4(C)[C@H]3CC[C@]12C` [UDCA, 3α, 7β-dihydroxy-5β-cholanoic acid], the RDW [1] was 20.17 ± 1.07%, the WBC [1] was 5.55 ± 1.91 10^3 and the BASO [2] was 0.09 ± 0.04 10^3. For the same compound, the EOS [2] was 0.003 ± 0.002 10^3, the HCT [2] was 44.77 ± 1.57% and the HGB [2] was 14.16 ± 0.44 g/dL. For the same compound, the LYM [2] was 5.17 ± 1.49 10^3, the MCH [2] was 15.04 ± 0.25 pg and the MCHC [2] was 31.63 ± 0.58 g/dL. For the same compound, the MCV [2] was 47.56 ± 0.81 fL, the MONO [2] was 0.04 ± 0.02 10^3 and the NEU [2] was 0.28 ± 0.07 10^3. For the same compound, the PLT [2] was 1141.22 ± 67.79 10^3, the RBC [2] was 9.42 ± 0.37 10^6 and the RDW [2] was 19.73 ± 0.91%. For the same compound, the WBC [2] was 5.68 ± 1.50 10^3, the BASO (TCDD 6.9 μg/kg + UDCA 0.5 wt %) was 0.10 ± 0.06 10^3 and the EOS (TCDD 6.9 μg/kg + UDCA 0.5 wt %) was 0.002 ± 0.002 10^3. For the same compound, the HCT (TCDD 6.9 μg/kg + UDCA 0.5 wt %) was 45.35 ± 0.93%, the HGB (TCDD 6.9 μg/kg + UDCA 0.5 wt %) was 14.47 ± 0.29 g/dL and the LYM (TCDD 6.9 μg/kg + UDCA 0.5 wt %) was 5.12 ± 1.13 10^3. It also gave an MCH (TCDD 6.9 μg/kg + UDCA 0.5 wt %) of 14.98 ± 0.19 pg, an MCHC (TCDD 6.9 μg/kg + UDCA 0.5 wt %) of 31.87 ± 0.41 g/dL and an MCV (TCDD 6.9 μg/kg + UDCA 0.5 wt %) of 47.08 ± 0.63 fL. For the same compound, the MONO (TCDD 6.9 μg/kg + UDCA 0.5 wt %) was 0.04 ± 0.03 10^3, the NEU (TCDD 6.9 μg/kg + UDCA 0.5 wt %) was 0.34 ± 0.11 10^3 and the PLT (TCDD 6.9 μg/kg + UDCA 0.5 wt %) was 1112.89 ± 76.53 10^3. The RBC (TCDD 6.9 μg/kg + UDCA 0.5 wt %) was 9.64 ± 0.26 10^6, the RDW (TCDD 6.9 μg/kg + UDCA 0.5 wt %) was 20.19 ± 0.72% and the WBC (TCDD 6.9 μg/kg + UDCA 0.5 wt %) was 5.76 ± 1.13 10^3. The BASO [3] was 0.09 ± 0.04 10^3, the EOS [3] was 0.002 ± 0.003 10^3 and the HCT [3] was 43.77 ± 1.37 %. For the same compound, the HGB [3] was 14.64 ± 0.67 g/dL, the LYM [3] was 2.06 ± 0.81 10^3 and the MCH [3] was 15.32 ± 0.39 pg. For the same compound, the MCHC [3] was 33.65 ± 1.04 g/dL, the MCV [3] was 45.51 ± 0.35 fL and the MONO [3] was 0.02 ± 0.01 10^3. For the same compound, the NEU [3] was 0.34 ± 0.10## 10^3, the PLT [3] was 1172.44 ± 80.58## 10^3 and the RBC [3] was 9.61 ± 0.29 10^6. For the same compound, the RDW [3] was 20.08 ± 1.20%, the WBC [3] was 3.69 ± 0.72 10^3 and the BASO [4] was 0.18 ± 0.07 10^3. For the same compound, the EOS [4] was 0.008 ± 0.007 10^3, the HCT [4] was 43.65 ± 1.24 % and the HGB [4] was 14.23 ± 0.55 g/dL. The LYM [4] was 2.99 ± 1.06## 10^3, the MCH [4] was 15.01 ± 0.44 pg and the MCHC [4] was 32.58 ± 0.73 g/dL. For the same compound, the MCV [4] was 46.09 ± 0.42 fL, the MONO [4] was 0.05 ± 0.03 10^3 and the NEU [4] was 0.48 ± 0.09## 10^3. The PLT [4] was 1069.70 ± 128.48## 10^3, the RBC [4] was 9.48 ± 0.29 10^6 and the RDW [4] was 19.99 ± 1.08%. For the same compound, the WBC [4] was 3.78 ± 1.19 10^3, the BASO [5] was 0.14 ± 0.07 10^3 and the EOS [5] was 0.005 ± 0.003 10^3. The HCT [5] was 44.49 ± 1.63 %, the HGB [5] was 14.80 ± 0.78 g/dL and the LYM [5] was 3.04 ± 0.77## 10^3. For the same compound, the MCH [5] was 15.46 ± 0.59 pg, the MCHC [5] was 33.23 ± 1.04 g/dL and the MCV [5] was 46.46 ± 0.86 fL. The MONO [5] was 0.05 ± 0.04 10^3, the NEU [5] was 0.59 ± 0.23## 10^3 and the PLT [5] was 1068.14 ± 84.28## 10^3. For the same compound, the RBC [5] was 9.57 ± 0.25 10^6, the RDW [5] was 20.44 ± 0.82% and the WBC [5] was 3.71 ± 0.99 10^3.
